Measurements reported in ChEMBL document CHEMBL5214925, “Dual-target inhibitors of indoleamine 2, 3 dioxygenase 1 (Ido1): A promising direction in cancer immunotherapy” (Eur J Med Chem, 2022).
Each block holds one compound with its values, some of them ahead of it.

Legend:
[1] = target: T1, Indoleamine 2,3-dioxygenase 1 (Homo sapiens, UniProt P14902); experiment: Inhibition of IDO1 in human A-172 cells; type: cell-based
Target sequence in this assay (P14902 whole entry): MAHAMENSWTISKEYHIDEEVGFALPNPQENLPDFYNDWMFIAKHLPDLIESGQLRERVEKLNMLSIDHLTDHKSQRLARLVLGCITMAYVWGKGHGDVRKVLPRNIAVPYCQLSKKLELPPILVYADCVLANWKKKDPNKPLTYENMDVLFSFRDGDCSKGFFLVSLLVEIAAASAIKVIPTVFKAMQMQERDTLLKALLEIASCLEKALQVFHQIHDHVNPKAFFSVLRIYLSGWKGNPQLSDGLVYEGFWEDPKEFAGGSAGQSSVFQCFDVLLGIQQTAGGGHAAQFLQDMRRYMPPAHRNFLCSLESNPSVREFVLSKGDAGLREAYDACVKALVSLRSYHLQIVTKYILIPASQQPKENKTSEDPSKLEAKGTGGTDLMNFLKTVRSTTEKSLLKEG

[2] = target: T1, Indoleamine 2,3-dioxygenase 1; experiment: Inhibition of IDO1 (unknown origin)
Target sequence in this assay (P14902 whole entry): as above

[3] = Antiproliferative activity against mouse Lewis lung carcinoma cell line; type: functional, cell-based
CT26 [4] = experiment: Antiproliferative activity against mouse CT26 cells; type: functional, cell-based
HCT-116 [5] = experiment: Antiproliferative activity against human HCT-116 cells; type: functional, cell-based
[6] = Antitumor activity against Lewis Lung carcinoma cells in mouse expressing IDO1 assessed as tumor growth inhibition relative to control; type: functional
[7] = target: T1, Indoleamine 2,3-dioxygenase 1; experiment: Inhibition of human recombinant IDO1 in human HeLa cells incubated for 48 hrs; type: cell-based
Target sequence in this assay (P14902 whole entry): as above

HeLa = experiment: Cytotoxicity against human HeLa cells; type: functional; conditions: read-out: LC50 (the source's name)
CT26 [8] = experiment: Cytotoxicity against […] cells by CCK-8 method; type: functional, cell-based; conditions: Mus musculus
A549 = experiment: Cytotoxicity against human A549 cells by CCK-8 method; type: functional, cell-based
HCT-116 [9] = experiment: Cytotoxicity against human HCT-116 cells by CCK-8 method; type: functional, cell-based
HT-29 = experiment: Cytotoxicity against human HT-29 cells by CCK-8 method; type: functional, cell-based
CT26 [10] = experiment: Antitumor activity against mouse CT26 cells allografted in immunocompetent mouse assessed as tumor growth inhibition relative to control; type: functional
CT26 [11] = experiment: Antitumor activity against mouse CT26 cells allografted in nude mouse assessed as reduction in tumor volume relative to control; type: functional; design: scale not given: the % may be the effect or the level left
[12] = target: T1, Indoleamine 2,3-dioxygenase 1; experiment: Inhibition of IDO1 (unknown origin) using L-tryptophan as substrate incubated for 10 mins
Target sequence in this assay (P14902 whole entry): as above

Histone deacetylase 1 = Histone deacetylase 1 (Homo sapiens, UniProt Q13547); experiment: Inhibition of HDAC1 (unknown origin) using […] as substrate preincubated for 15 mins followed by substrate addition measured after 60 mins
[13] = target: T1, Indoleamine 2,3-dioxygenase 1; experiment: Inhibition of recombinant N-terminal His tagged IDO1 (unknown origin) expressed in Escherichia coli incubated for 1.5 hrs by FULOstar OMEGA plate reader method
Target sequence in this assay (P14902 whole entry): as above

[14] = target: Tryptophan 2,3-dioxygenase (Homo sapiens, UniProt P48775); experiment: Inhibition of recombinant C-terminal His tagged TDO (unknown origin) expressed in Escherichia coli
[15] = Antitumor activity against mouse LL2 cells allografted in mouse model over expressing IDO1 assessed as tumor growth inhibition relative to control; type: functional, Lewis lung carcinoma
[16] = Antitumor activity against mouse HEPA1-6 cells allografted in mouse model over expressing IDO1 assessed as tumor growth inhibition relative to control; type: functional
[17] = Antitumor activity against mouse HEPA1-6 cells allografted in mouse model over expressing TDO assessed as tumor growth inhibition relative to control; type: functional
[18] = target: T1, Indoleamine 2,3-dioxygenase 1; experiment: Inhibition of IDO1 in human BT-549 cells; type: cell-based; conditions: pooled result: one value given for 2 cell lines, strains, targets or settings
Target sequence in this assay (P14902 whole entry): as above

[19] = Clearance in Sprague-Dawley rat plasma; type: ADME, cell-free
[20] = Volume of distribution in Sprague-Dawley rat plasma; type: ADME, cell-free
CT26 [21] = experiment: Antitumor activity against mouse CT26 cells allografted in mouse assessed as tumor growth inhibition at 50 mg/kg; type: functional; conditions: read-out: TGI
[22] = Antiproliferative activity against melanoma cells (unknown origin) subcutaneously xenografted in mouse model assessed as inhibition of cell growth rate at 50 mg/kg relative to control; type: functional; conditions: sc
[23] = Antiproliferative activity against melanoma cells (unknown origin) subcutaneously xenografted in mouse model assessed as inhibition of cell growth rate at 100 mg/kg relative to control; type: functional; conditions: sc
[24] = target: T1, Indoleamine 2,3-dioxygenase 1; experiment: Inhibition of IDO1 (unknown origin) using L-tryptophan as substrate at 10 uM incubated for 10 mins relative to control
Target sequence in this assay (P14902 whole entry, looked up): as the sequence (P14902 whole entry) above

[25] = target: T1, Indoleamine 2,3-dioxygenase 1; experiment: Inhibition of IDO1 in human HeLa cells; type: cell-based
[26] = target: T1, Indoleamine 2,3-dioxygenase 1; experiment: Inhibition of human N-terminal His tagged recombinant IDO1 (5 to 403 residues) expressed in Escherichia coli BL21 (DE3)
[27] = Inhibition of rat liver TrxR incubated for 1 hr; type: tissue-based
[28] = Cytotoxicity against human colon epithelial cells incubated for 24 hrs by CCK-8 assay; type: functional, cell-based; conditions: Epithelial cell
HCT-116 [29] = experiment: Cytotoxicity against human HCT-116 incubated for 24 hrs by CCK-8 assay; type: functional, cell-based; conditions: HCT-116, 24 h
[30] = Inhibition of TrxR in human HCT-116 cell lysate; type: subcellular
[31] = Antitumor activity against Lewis lung carcinoma cell in C57BL/6 mouse assessed as tumor growth inhibition at 60 mg/kg relative to control; type: functional; conditions: C57BL/6, Lewis lung carcinoma, read-out: TGI

Tryptophan 2,3-dioxygenase, sequence (P48775 whole entry): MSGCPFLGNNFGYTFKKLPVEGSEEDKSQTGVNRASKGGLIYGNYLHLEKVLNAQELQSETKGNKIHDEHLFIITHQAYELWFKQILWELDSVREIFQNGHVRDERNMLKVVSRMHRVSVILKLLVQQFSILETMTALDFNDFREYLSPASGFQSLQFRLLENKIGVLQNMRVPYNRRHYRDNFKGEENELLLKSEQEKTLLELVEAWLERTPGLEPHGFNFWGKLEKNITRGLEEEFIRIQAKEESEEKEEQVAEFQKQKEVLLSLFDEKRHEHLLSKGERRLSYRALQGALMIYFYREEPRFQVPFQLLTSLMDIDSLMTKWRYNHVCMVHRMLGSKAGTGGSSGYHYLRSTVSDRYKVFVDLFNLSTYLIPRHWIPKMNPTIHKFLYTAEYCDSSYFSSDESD
Histone deacetylase 1, sequence (Q13547 whole entry): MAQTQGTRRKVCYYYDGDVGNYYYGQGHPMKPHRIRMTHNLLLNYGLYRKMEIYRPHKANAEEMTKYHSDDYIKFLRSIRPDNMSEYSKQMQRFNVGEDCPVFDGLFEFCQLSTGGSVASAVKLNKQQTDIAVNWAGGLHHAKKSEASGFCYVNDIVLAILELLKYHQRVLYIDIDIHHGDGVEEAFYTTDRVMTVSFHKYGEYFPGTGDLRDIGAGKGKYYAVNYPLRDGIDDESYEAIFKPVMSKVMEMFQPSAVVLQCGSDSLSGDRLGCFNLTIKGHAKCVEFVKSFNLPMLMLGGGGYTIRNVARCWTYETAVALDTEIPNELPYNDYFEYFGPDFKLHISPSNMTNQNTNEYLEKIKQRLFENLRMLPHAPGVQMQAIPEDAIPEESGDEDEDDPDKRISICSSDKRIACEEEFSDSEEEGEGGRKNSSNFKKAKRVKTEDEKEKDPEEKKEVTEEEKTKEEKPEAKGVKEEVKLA

IC50 [1]: 37.7 µM
Structure (SMILES): CC1=C(CC(=O)c2sccc2Br)C(=O)c2ccccc2C1=O

Structure (SMILES): NC(CC(=O)O)Cc1c[nH]c2ccc(N(CCCl)CCCl)cc12 (stereo unspecified)
IC50 [2]: 14 µM | IC50 [3]: 23.7 µM | IC50 (CT26 [4]): 23.7 µM | IC50 (HCT-116 [5]): 23.7 µM | TGI [6]: 63.8%

Structure (SMILES): O=C(NCCNc1nonc1/C(=N/O)Nc1ccc(F)c(Br)c1)c1cccc(N(CCCl)CCCl)c1
EC50 [7]: 0.27 µM | CC50 (HeLa): 39 µM | IC50 (CT26 [8]): 25 µM | IC50 (A549): 17 µM | IC50 (HCT-116 [9]): 25 µM | IC50 (HT-29): 19 µM | TGI (CT26 [10]): 58.2% | Activity (CT26 [11]): 28.6%

IC50 [12]: 0.73 µM | IC50 (Histone deacetylase 1): 0.46 µM
Structure (SMILES): Cc1ccc2c(c1CCC(=O)NCCCCCC(=O)CNc1ccccc1N)C(=O)C(=O)C(C(C)C)=C2

IC50 [13]: 0.0096 µM | IC50 [14]: 0.029 µM
Structure (SMILES): O[C@@H](c1cn2cncc2cc1Cl)C1CCCCC1

Structure (SMILES): O=C1c2cc(F)ccc2C(=O)c2c1nnn2-c1ccc(F)c(Cl)c1
TGI [15]: 62.5% | TGI [16]: 80% | TGI [17]: 80%

IC50 [18]: 20.6 µM
Structure (SMILES): COc1ccccc1C(=O)CC(=O)c1ccc(C)cc1O

Structure (SMILES): NC(CC(=O)O)Cc1c[nH]c2cc(N(CCCl)CCCl)ccc12 (stereo unspecified)
IC50 [2]: 227 µM | IC50 [3]: 63.9 µM | IC50 (CT26 [4]): 63.9 µM | IC50 (HCT-116 [5]): 63.9 µM | TGI [6]: 73.5%

IC50 [13]: 0.049 µM | IC50 [14]: 0.078 µM
Structure (SMILES): Cn1cc(-c2ccc(NC(N)=O)cc2)c2ccc(F)cc21

clearance [19]: 27.5 mL/min/kg | Vd [20]: 0.88 L/kg
Structure (SMILES): OCCOCc1cn(CCNc2nonc2/C(=N/O)Nc2ccc(F)c(Br)c2)nn1
inhibition in vivo at 50 mg/kg (CT26 [21]): 69.7%

Structure (SMILES): COc1cc(Nc2cc(NC(C)=O)cc3[nH]c(C(=O)O)cc23)cc(OC)c1OC
inhibition in vivo at 50 mg/kg [22]: 43.2% | inhibition in vivo at 100 mg/kg [23]: 44.7%

inhibition [24]: 85%
Structure (SMILES): CC(C)=CCCc1c(C)ccc2c1C(=O)C(=O)C(C(C)C)=C2

IC50 [18]: 10.8 µM
Structure (SMILES): Cc1ccc(C(=O)CC(=O)c2ccccc2OC(C)C)c(O)c1

EC50 [25]: 1.41 µM | IC50 [26]: 0.084 µM | IC50 [27]: 7.89 µM | IC50 [30]: 4.22 µM
Structure (SMILES): O=C1C=CCCN1C(=O)/C=C/c1ccccc1-c1c[nH]cn1
IC50 [28]: 42 µM | IC50 (HCT-116 [29]): 0.55 µM

Structure (SMILES): COc1cc(/C=C/C(=O)N2CCC=CC2=O)cc(OC)c1OC [PIPLARTINE]
IC50 [28]: 46.9 µM | IC50 (HCT-116 [29]): 6.38 µM

Structure (SMILES): NS(=O)(=O)NCCNc1nonc1/C(=N/O)Nc1ccc(F)c(Br)c1 [EPACADOSTAT]
inhibition in vivo at 60 mg/kg [31]: 68% | TGI (CT26 [10]): 47.5%
